According to patent US9732068B1, “System for crystalizing chemical compounds and methodologies for utilizing the same” (GenSyn Technologies, Inc., priority 2013, dated 2017):

Test: Particle size measurement of crystallized compound with Horiba L950 particle size analyzer
Assay type: physicochemical
Conditions: for Span: Span=(D90-D10)/D50; for median particle size: final solution after crystallization in system 10
Description: Just as importantly as desirable small particle sizes is uniformity of particle size distributions (i.e., described by “D values”). D values of “D10”, “D50” and “D90” may be used to represent the midpoint and range of particle sizes of a given sample. The D10 particle size is the diameter at which 10% of a sample's mass is comprised of smaller particles. The D50 is the “mass median diameter” as it divides the sample equally by mass. The D90 particle size is the diameter at which 90% of a sample's mass is comprised of smaller particles.
System 10 of the present invention enables the production of customized particles within a narrow range of particle sizes. A common value used to express the uniformity of particle size distribution is the “span”. The span is a measure of how wide of a spectrum of particle sizes is produced. A system with a low relative span is desirable as it will produce more uniform distribution of particle sizes. Span can be calculated with the equation below: Span=(D90−D10)/D50.
Two grams of Paracetomol was dissolved in 100 grams of ethanol. Two grams of Soy Lecithin was dissolved in 50 grams of tetrahydrofuran (THF). The two solutions were combined and heated to 60° C. The solution was added to the input hopper of a dual piston pump 241. The pump 241 was fed into fluid input conduit 121 of the crystallization chamber 22 through a 0.006″ opening 701 of a nozzle 581. Heptane, at 10° C. was fed into fluid input conduits 122, 123 and 124 through 0.006″, 0.008″ and 0.008″ openings 702, 703, and 704 of nozzles 582, 583, and 584 respectively by an identical piston pump 242. The pressure on both pumps 241 and 242 was adjusted to 1000 psi. The mixed streams exited through fluid output conduit 32 and into fluid reservoir 34 containing approximately 100 ml of heptane. Approximately, the first third and last third of the mixture were discarded and only the central third collected in fluid reservoir 34. The final solution was sampled and the particle size was measured, in heptane, using a Horiba L950 particle size analyzer. The median particle size was about 1.3 microns. The Span was about 0.901.
Two grams of Carbamazepine was dissolved in 100 grams of ethanol. Two grams of Soy Lecithin was dissolved in 50 grams of THF. The two solutions were combined and heated to 60° C. The solution was added to the input hopper of a dual piston pump 241. The pump 241 was fed into fluid input conduit 121 of the crystallization chamber 22 through a 0.004″ opening 701 of a nozzle 581. Heptane, at 10° C. was fed into fluid input conduits 122, 123 and 124 through 0.006″, 0.007″ and 0.007″ openings 702, 703, and 704 of nozzles 582, 583, and 584 respectively by an identical piston pump 242. The pressure on both pumps 241 and 242 was adjusted to 1500 psi. The mixed streams exited through fluid output conduit 32 and into fluid reservoir 34 containing approximately 100 ml of heptane. Approximately, the first third and last third of the mixture were discarded and only the central third collected in fluid reservoir 34. The final solution was sampled and the particle size was measured, in heptane, using a Horiba L950 particle size analyzer. The median particle size was about 1.5 microns. The Span was about 0.916.
Two grams of Ketoprofen was dissolved in 100 grams of DMSO. Two grams of Sorbitan Monostearate was dissolved in 50 grams of THF. The two solutions were combined and heated to 60° C. The solution was added to the input hopper of a dual piston pump 241. The pump 241 was fed into fluid input conduits 121 of the crystallization chamber 22 through a 0.004″ opening 701 of a nozzle 581. DI water with 0.1% Polysorbate 20, at 5° C. was fed into fluid input conduits 122, 123 and 124 through 0.006″, 0.008″ and 0.008″ openings 702, 703, and 704 of nozzles 582, 583, and 584 respectively by an identical piston pump 242. The pressure on both pumps 241 and 242 was adjusted to 1500 psi. […]

SMILES	Span (measured in DI water)	median particle size (measured in DI water)	Span (measured in heptane)	median particle size (measured in heptane)
CC(C(=O)O)c1cccc(C(=O)c2ccccc2)c1 (racemic) [Ketoprofen, (RS)-2-(3-benzoylphenyl)propanoic acid]	about 1.078	about 3.1 microns	–	–
CC(C)c1c(C(=O)Nc2ccccc2)c(-c2ccccc2)c(-c2ccc(F)cc2)n1CC[C@@H](O)C[C@@H](O)CC(=O)O [Atorvastatin, (3R,5R)-7-[2-(4-fluorophenyl)-3-phenyl-4-(phenylcarbamoyl)-5-propan-2-ylpyrrol-1-yl]-3,5-dihydroxyheptanoic acid]	about 0.99	about 126 nanometers	–	–
NC(=O)N1c2ccccc2C=Cc2ccccc21 [Carbamazepine, 5H-dibenzo[b,f]azepine-5-carboxamide]	–	–	about 0.916	about 1.5 microns
CC(=O)Nc1ccc(O)cc1 [Paracetomol, N-(4-hydroxyphenyl)ethanamide]	–	–	about 0.901	about 1.3 microns
